EC50 and IC50 data for 16 compounds are collected here from ChEMBL document CHEMBL1154635, “Mitoxantrone analogues as ligands for a stem-loop structure of tau pre-mRNA” (J Med Chem, 2009).

Assay [1] concerns the target Nucleic Acid. As to the kind of experiment: Displacement of fluorescent pyrene-neomycin conjugate from tau stem-loop RNA. It counts as nucleic-acid assay.
Assay [2] concerns the target Nucleic Acid. The assay can be described thus: Binding affinity to tau stem-loop RNA assessed as inhibition of RNA stem-loop unfolding. In kind it is nucleic-acid assay.

For orientation: EC50 means the concentration that produces a half-maximal response. The term IC50 denotes the point on the concentration scale where inhibition reaches its midpoint.

The structures appear in SMILES notation.

On to `NCCNCCNCCNc1ccc(NCCNCCNCCN)c2c1C(=O)c1c(O)ccc(O)c1C2=O`, for which the EC50 in assay [1] came out at 130 nM. Besides, the IC50 in assay [2] was 130 nM.
In the case of `Nc1ccc(O)c2c1C(=O)c1c(N)ccc(O)c1C2=O`, the EC50 in assay [1] is over 100000 nM. Further, the half-inhibitory concentration (IC50) in assay [2] was over 100000 nM.
Compound `O=C1c2c(O)ccc(O)c2C(=O)c2c(NCCOCCO)ccc(NCCNCCO)c21` registered an EC50 in assay [1] of 14000 nM. Further, in assay [2], the IC50 came to 5700 nM.
For the compound `O=C1c2c(NCCNCCO)ccc(NCCNCCO)c2C(=O)c2c(NCCNCCO)ccc(NCCNCCO)c21`, a half-maximal response in assay [1] (EC50) required 1200 nM. The IC50 in assay [2] came out at 340 nM.
In assay [1], `CC(C)(C)OC(=O)NCCNCCNc1ccc(NCCNCCO)c2c1C(=O)c1c(O)ccc(O)c1C2=O` registered an EC50 of 12000 nM. The IC50 in assay [2] worked out at 2400 nM.
The corresponding values for `NCCNCCNc1ccc(NCCNCCO)c2c1C(=O)c1c(O)ccc(O)c1C2=O` are 310 nM and 180 nM.
Turning to `NCCNCCNCCNc1ccc(NCCNCCO)c2c1C(=O)c1c(O)ccc(O)c1C2=O`, in assay [1], the EC50 amounted to 380 nM. In assay [2], the IC50 was determined as 230 nM.
In the case of `NCCNCCNc1ccc(NCCNCCN)c2c1C(=O)c1c(O)ccc(O)c1C2=O`, the midpoint of the response in assay [1], the EC50, lay at 160 nM. In addition, the IC50 in assay [2] came out at 130 nM.
`Nc1ccc(N)c2c1C(=O)c1c(N)ccc(N)c1C2=O`: the EC50 in assay [1] was over 100000 nM. In assay [2], the IC50 is over 100000 nM.
For `O=C1c2c(O)ccc(O)c2C(=O)c2c(NCCNCCO)ccc(NCCNCCO)c21` [MITOXANTRONE], in assay [1], it took 890 nM to reach a half-maximal effect (EC50). The half-inhibitory concentration (IC50) in assay [2] was determined as 460 nM.
In assay [1], `Nc1ccc(NCCNCCO)c2c1C(=O)c1c(O)ccc(O)c1C2=O` had an EC50 of 29000 nM. Besides, the IC50 in assay [2] was found to be 5800 nM.
In turn, `O=C1c2c(O)ccc(O)c2C(=O)c2c(NCCNCCO)ccc(F)c21` returned an EC50 in assay [1] of 75000 nM. Moreover, the IC50 in assay [2] turned out to be 5700 nM.
The corresponding values for `O=C1c2c(O)ccc(NCCNCCO)c2C(=O)c2c(NCCNCCO)ccc(NCCNCCO)c21` are 800 nM and 420 nM.
As to `O=C1c2c(O)ccc(NCCNCCO)c2C(=O)c2c(NCCNCCO)ccc(O)c21`, the midpoint of the response in assay [1], the EC50, lay at 4400 nM. Also, in assay [2], the IC50 is 1500 nM.
As for `Nc1ccc(N)c2c1C(=O)c1c(O)ccc(O)c1C2=O`, the EC50 in assay [1] was over 100000 nM. Besides, the IC50 in assay [2] is over 100000 nM.
As for `O=C1c2c(F)ccc(F)c2C(=O)c2c(NCCNCCO)ccc(NCCNCCO)c21`, in assay [1], the EC50 was determined as 16000 nM. In addition, the IC50 in assay [2] was 2300 nM.
